Key:
PKCδ-GFP fusion protein = assay: PKCδ-GFP translocation assay in living CHO-k1 cells (confocal microscopy); type: cell-based, Chinese hamster; conditions: for concentration* (minimum effective concentration required to induce translocation of PKC-GFP to the membrane) / % Translocation: CHO-k1 cells; for % Translocation: maximum translocation of PKCδ-GFP to the plasma membrane at the concentration printed in the same cell, SUW212: only brief translocation observed; for PKC translocation behavior / dynamics of PKC activation: time course, FIG. 6 panels C-D
Experimental: Because a prerequisite for PKC pathway involvement is binding to PKC, compounds were initially evaluated for PKC affinity in a cell-free competitive binding assay with tritiated phorbol dibutyrate ([^3H]-PDBu). Assays were performed with representative members of both the conventional (PKCα) and novel (PKCδ) PKC families. Subsequently, compounds were assayed for PKC activation in living cells using an isoform translocation assay.
Chinese hamster ovary factor K1 (CHO-k1, ATCC) cells were cultured in F-12 Kaighn's media (Hyclone, 10% fetal bovine serum, 1% penicillin/streptomycin added, referred to as F-12+/+ below) at 37° C. in an incubator (5% CO2). Cell cultures were maintained by splitting cells 1:3 when they reached ˜75-100% confluence (every 2-3 days) as follows:
1 mL of the cell suspension was then added to 9 mL of fresh F-12+/+ and the sample was sub-cultured until reaching confluence (˜2-3 days).
Cells were counted using a Countess II Automated Cell Counter (Fisher). The cell suspension was diluted to 240,000 cells/mL with fresh F-12+/+ and 2.5 mL of this diluted stock was added to one well in a 6-well plate. The cells were then cultured for 24 hours.
F-12+/+ was aspirated and cells were washed with F-12−/−. 2 mL of fresh F-12−/− was then added to each well, taking care not to disturb adherent cells. For each well of CHO-k1 cells, 12.5 μL Lipofectamine 2000 reagent (Invitrogen) was added to 250 μL Opti-MEM reduced serum media (Invitrogen) in a polypropylene tube and incubated for 20 minutes at RT. Meanwhile, for each well, 4 μg of PKCδ-GFP pDNA and 250 μL Opti-MEM reduced serum media was added to a separate polypropylene tube. 250 μL of the Lipofectamine 2000 suspension was added to the DNA suspension and the solution incubated for 30 minutes at RT. 500 μL of the Lipofectamine/DNA suspension was added to the respective wells of the 6-well plate. The cells were then incubated at 37° C. (5% CO2) for ˜24 hrs.
F-12+/+ was aspirated and cells were washed with F-12−/−. 2.4 mL of fresh F-12−/− was then added to each well, taking care not to disturb adherent cells. A 4 μg aliquot of PKCδ-GFP pDNA was added to PBS (pH 5.5, final volume 100 μL). 5.6 μL of DA 13:11 (2 mM stock in DMSO) was then added to the DNA solution, and the mixture was gently mixed (by flicking) for 20 seconds, at which point it was added directly to the respective wells of the 6-well plate. The cells were then incubated at 37° C. (5% C02) for ˜24 hrs.
After incubation, the media was aspirated and cells were washed with PBS (2.0 mL) and trypsinized (500 μL). The cell suspension was then diluted with 2.0 mL F-12+/+. 200 μL aliquots were added to 3 wells of a Lab-Tek II 4-well chambered coverglass slide (Fisher), producing 4 slides in total, each with three wells of cells. The cell suspension was directly diluted with 600 μL of additional F-12+/+. The resulting samples were incubated for ˜24 hrs. prior to imaging.
Fluorescent images were obtained using a Leica SP8 White Light Confocal microscope and the Leica AF software package. Prior to analysis, media was aspirated and 800 μL of PBS (Hyclone, without Ca^2+ or Mg^2+) supplemented with glucose (10 mM) was added to each well of the chambered coverglass slide. Bryostatin and bryostatin analogs were diluted to the appropriate concentration in 200 μL of 10 mM glucose in PBS. Cells were located for imaging and data was recorded for three wells in parallel, imaging at predetermined positions in each well using adaptive focus control. Cells were imaged at 30 second intervals following the addition of compound (set to t=0) for 20-40 minutes. Data were recorded at room temperature. Images were exported as .lif files and fluorescence intensity was analyzed using FIJI (NIH) software.

[1] = tested on: CD22 surface expression in NALM6 cells; assay: CD22 surface expression assay by flow cytometry; type: cell-based, human; conditions: NALM6 cells; for fold induction at 0.001 µM: Homo sapiens, NALM-6, read-out: Fold increase CD22 expression; for fold induction at 0.001 µM / Fold increase CD22 expression: At 1 nM, relative to DMSO control
Experimental: Cell cultures were maintained between 4×10^5 and 3×10^6 cells/mL according to vendor instructions.
Cell suspension from a confluent T75 flask (Fisher) was transferred to a 15 mL falcon tube and centrifuged at 1100 rpm for 7 minutes. […] Cells were counted using a Countess II Automated Cell Counter (Fisher). […] 199 μL of this stock was added to 24 wells (enough for triplicate measurements for 8 different experimental conditions) in a 96-well plate. […] 1 μL of DMSO or the appropriate stock solution of compound in DMSO was added to each well. Cells were incubated for 24 hours, at which point the cell suspensions were transferred to 1.5 mL Eppendorf tubes and diluted with 1.0 mL of PBS (Hyclone, without Ca^2+ or Mg^2+). Samples were centrifuged at 2000 rpm for 5 min at RT. […] Cells were sub-cultured between 2×10^5 and 3×10^6 cells/mL in 24-well plates for an additional 24 hrs-7 days, at which point CD22 surface expression was assayed by flow cytometry.
Cells from one well were counted using a Countess II Automated Cell Counter (Fisher). ˜200,000-300,000 cells from each well were added to 1.5 mL Eppendorf tubes containing PBS (final volume ˜1.2 mL). The cell suspensions were centrifuged at 1500 rpm for 7 minutes at 4° C. The supernatant was aspirated, and the cell pellet was resuspended in 99 μL of pre-chilled FACS buffer (0.5% w/v BSA in PBS). […] Samples were then diluted with an additional 1.0 mL of FACS buffer and centrifuged at 1500 rpm for 7 minutes at 4° C. […] Cells were stained with DAPI and CD22 surface expression was analyzed using the FACScan Analyzer at the Stanford Shared FACS Facility. Data analysis was performed using FlowJo and Microsoft Excel.

Row | SMILES | concentration* (minimum effective concentration required to induce translocation of PKC-GFP to the membrane) (PKCδ-GFP fusion protein) | % Translocation (PKCδ-GFP fusion protein) | PKC translocation behavior / dynamics of PKC activation (PKCδ-GFP fusion protein) | fold induction at 0.001 µM [1] | Fold increase CD22 expression [1] | cytosolic PKC translocated (PKCδ-GFP fusion protein; 1000 nM) | activity in the CD22 induction assay, in words ([1]; 1 nM or 10 nM, 24 hours)
1 | CCC/C=C/C=C/C(=O)O[C@H]1/C(=C/C(=O)OC)C[C@H]2C[C@H]([C@@H](C)O)OC(=O)C[C@H](O)C[C@@H]3C[C@H](OC(C)=O)C(C)(C)[C@](O)(C[C@@H]4C[C@@H](OC(C)=O)C[C@H](/C=C/C(C)(C)[C@]1(O)O2)O4)O3 [SUW207] | 200 nM | 60% | almost identical behavior both to each other and to bryostatin 1 | 1.33 | – | – | –
2 | CCCC=CC=CC(=O)OC1C(=CC(=O)OC)CC2CC(C(C)O)OC(=O)CC(O)CC3CC(OC(C)=O)C(C)(C)C(O)(CC4CC(=CC(=O)OCC)CC(C=CC(C)(C)C1(O)O2)O4)O3 (centres unmarked) [SUW217] | 200 nM | 75% | – | – | 1.97 fold | – | –
3 | CCCCCC#CC(=O)O[C@H]1/C(=C/C(=O)OC)C[C@H]2C[C@H]([C@@H](C)O)OC(=O)C[C@H](O)C[C@@H]3C[C@H](OC(C)=O)C(C)(C)[C@](O)(C[C@@H]4C[C@@](O)(CO)C[C@H](/C=C/C(C)(C)[C@]1(O)O2)O4)O3 [SUW203] | 1000 nM | 50% | – | 1.16 | – | ~50% | –
4 | CCCC=CC=CC(=O)OC1C(=CC(=O)OC)CC2CC(C(C)O)OC(=O)CC(O)CC3CC(OC(C)=O)C(C)(C)C(O)(CC4CC(=CC(=O)OCC)CC(C=CC(C)(C)C1(O)O2)O4)O3 (centres unmarked) [SUW218] | 200 nM | 55% | more sustained linear activation dynamics | – | 1.92 fold | – | –
5 | CCC/C=C/C=C/C(=O)O[C@H]1/C(=C/C(=O)OC)C[C@H]2C[C@H]([C@@H](C)O)OC(=O)C[C@H](O)C[C@@H]3C[C@H](OC(C)=O)C(C)(C)[C@](O)(C[C@@H]4C[C@H](OC(C)=O)C[C@H](/C=C/C(C)(C)[C@]1(O)O2)O4)O3 [SUW206] | 200 nM | 60% | almost identical behavior both to each other and to bryostatin 1 | 1.63 | – | – | –
6 | CCCCCCCC(=O)O[C@H]1/C(=C/C(=O)OC)C[C@H]2C[C@H]([C@@H](C)O)OC(=O)C[C@H](O)C[C@@H]3C[C@H](OC(C)=O)C(C)(C)[C@](O)(C[C@@H]4C[C@@H](C)C[C@H](/C=C/C(C)(C)[C@]1(O)O2)O4)O3 [SUW226] | 200 nM | 75% | – | 1.76 | – | – | –
7 | C=CCOC(=O)/C=C1/C[C@H]2C[C@]3(O)O[C@H](C[C@@H](O)CC(=O)O[C@@H]([C@@H](C)O)C[C@@H]4C/C(=C\C(=O)OC)[C@H](OC(=O)/C=C/C=C/CCC)[C@@](O)(O4)C(C)(C)/C=C/[C@@H](C1)O2)C[C@H](OC(C)=O)C3(C)C [SUW229] | 200 nM | 50% | more sustained linear activation dynamics | – | – | – | top performer

From patent publication US20220193029A1, “BRYOSTATIN COMPOUNDS FOR ENHANCEMENT OF IMMUNOTHERAPY” (priority 2019, published 2022)
